Laboratory results as given in ChEMBL document CHEMBL2177009, “The use of novel C-methylated spermidine derivatives to investigate the regulation of polyamine metabolism” (J Med Chem, 2011).
Active and inactive are the calls of the source. No cut-off for these calls is given here.

Columns and labels:
[1] = biological target: Peroxisomal N(1)-acetyl-spermine/spermidine oxidase (Homo sapiens) (UniProt Q6QHF9); assay: Activity of APAO in human DU145 cells assessed per ug DNA at 100 uM after 48 hrs in presence of serum amine oxidase inhibitor aminoguanidine (RVb = 699 +/- 21 pmol/h per ug DNA); type: cell-based; settings: DU-145
Sequence of Peroxisomal N(1)-acetyl-spermine/spermidine oxidase (Homo sapiens) (Q6QHF9 whole entry): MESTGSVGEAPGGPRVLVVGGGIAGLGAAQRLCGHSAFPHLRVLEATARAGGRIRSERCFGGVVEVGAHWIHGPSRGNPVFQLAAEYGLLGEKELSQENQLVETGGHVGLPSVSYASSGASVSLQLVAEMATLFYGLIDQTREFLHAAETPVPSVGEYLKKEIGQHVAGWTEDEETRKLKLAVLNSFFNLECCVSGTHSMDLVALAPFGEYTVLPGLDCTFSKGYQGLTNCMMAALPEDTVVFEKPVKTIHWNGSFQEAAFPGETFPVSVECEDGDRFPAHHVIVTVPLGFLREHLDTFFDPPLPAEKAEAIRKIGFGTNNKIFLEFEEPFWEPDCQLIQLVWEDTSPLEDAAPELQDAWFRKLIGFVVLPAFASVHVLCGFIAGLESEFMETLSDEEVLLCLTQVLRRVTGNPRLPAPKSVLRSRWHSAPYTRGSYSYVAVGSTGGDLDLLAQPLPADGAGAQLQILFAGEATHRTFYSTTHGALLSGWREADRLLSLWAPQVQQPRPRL

[2] = biological target: T1, Ornithine decarboxylase (Homo sapiens) (UniProt P11926); assay: Activity of ornithine decarboxylase in human DU145 cells assessed per ug DNA at 100 uM after 24 hrs in presence of serum amine oxidase inhibitor aminoguanidine (RVb = 29.3 +/- 1.4 pmol/h per ug DNA); type: cell-based; settings: DU-145
T1 sequence (whole entry): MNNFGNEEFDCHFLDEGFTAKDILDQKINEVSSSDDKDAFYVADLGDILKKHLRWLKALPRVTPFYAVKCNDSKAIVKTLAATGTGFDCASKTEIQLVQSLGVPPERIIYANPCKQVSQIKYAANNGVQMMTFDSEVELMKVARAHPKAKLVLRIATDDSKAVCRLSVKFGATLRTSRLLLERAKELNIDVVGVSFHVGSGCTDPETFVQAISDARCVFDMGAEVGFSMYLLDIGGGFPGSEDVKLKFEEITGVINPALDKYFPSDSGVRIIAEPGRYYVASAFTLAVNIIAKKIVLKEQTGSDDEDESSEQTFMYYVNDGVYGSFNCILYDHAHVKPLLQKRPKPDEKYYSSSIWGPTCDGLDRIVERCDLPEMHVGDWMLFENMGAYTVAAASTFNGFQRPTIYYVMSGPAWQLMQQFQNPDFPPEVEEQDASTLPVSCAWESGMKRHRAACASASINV

[3] = biological target: Spermine oxidase (Homo sapiens) (UniProt Q9NWM0); assay: Activity of spermine oxidase in human DU145 cells assessed per ug DNA at 100 uM after 72 hrs in presence of serum amine oxidase inhibitor aminoguanidine (RVb = 742 +/- 10 pmol/h per ug DNA); type: cell-based; settings: DU-145
Sequence of Spermine oxidase (Homo sapiens) (Q9NWM0 whole entry): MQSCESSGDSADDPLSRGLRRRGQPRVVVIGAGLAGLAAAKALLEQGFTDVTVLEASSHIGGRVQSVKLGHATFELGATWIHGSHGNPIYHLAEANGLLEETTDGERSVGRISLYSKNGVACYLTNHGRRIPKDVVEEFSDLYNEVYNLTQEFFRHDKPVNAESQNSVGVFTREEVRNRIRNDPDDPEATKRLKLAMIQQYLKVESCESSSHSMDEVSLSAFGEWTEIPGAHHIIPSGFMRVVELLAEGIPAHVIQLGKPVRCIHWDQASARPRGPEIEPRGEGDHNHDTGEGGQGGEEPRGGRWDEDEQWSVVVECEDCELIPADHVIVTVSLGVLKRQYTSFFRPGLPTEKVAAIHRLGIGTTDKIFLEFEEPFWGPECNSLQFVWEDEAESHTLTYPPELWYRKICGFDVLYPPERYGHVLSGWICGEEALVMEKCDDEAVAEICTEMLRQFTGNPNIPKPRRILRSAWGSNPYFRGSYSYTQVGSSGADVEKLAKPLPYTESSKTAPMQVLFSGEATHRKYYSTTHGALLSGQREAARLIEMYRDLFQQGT

[4] = biological target: Diamine acetyltransferase 1 (Homo sapiens) (UniProt P21673); assay: Activity of SSAT in human DU145 cells assessed per ug DNA at 100 uM after 48 hrs in presence of serum amine oxidase inhibitor aminoguanidine (RVb = 58 pmol/h per ug DNA); type: cell-based; settings: DU-145
Sequence of Diamine acetyltransferase 1 (Homo sapiens) (P21673 whole entry): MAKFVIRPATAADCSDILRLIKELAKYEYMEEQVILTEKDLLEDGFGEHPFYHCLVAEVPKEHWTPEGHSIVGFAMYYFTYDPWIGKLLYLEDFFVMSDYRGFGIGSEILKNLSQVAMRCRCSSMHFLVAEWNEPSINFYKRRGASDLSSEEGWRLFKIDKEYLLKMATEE

Nucleic Acid = assay: Induction of SSAT alternative splicing in mouse primary fetal fibroblasts assessed as SSAT-X mRNA at 100 uM by qRT-PCR in presence of CHX relative to total SSAT mRNA
[5] = biological target: Diamine acetyltransferase 1 (Homo sapiens) (UniProt P21673); assay: Activity of SSAT in human DU145 cells assessed per ug DNA at 100 uM after 72 hrs in presence of serum amine oxidase inhibitor aminoguanidine (RVb = 62 +/- 4 pmol/h per ug DNA); type: cell-based; settings: DU-145
[6] = biological target: Spermine oxidase (Homo sapiens) (UniProt Q9NWM0); assay: Activity of spermine oxidase in human DU145 cells assessed per ug DNA at 100 uM after 48 hrs in presence of serum amine oxidase inhibitor aminoguanidine (RVb = 680 +/- 29 pmol/h per ug DNA); type: cell-based; settings: DU-145
[7] = biological target: T1, Ornithine decarboxylase (Homo sapiens); assay: Activity of ornithine decarboxylase in human DU145 cells assessed per ug DNA at 100 uM after 72 hrs in presence of serum amine oxidase inhibitor aminoguanidine (RVb = 7.5+/- 0.9 pmol/h per ug DNA); type: cell-based; settings: DU-145
[8] = biological target: Diamine acetyltransferase 1 (Homo sapiens) (UniProt P21673); assay: Activity of SSAT in human DU145 cells assessed per ug DNA at 100 uM after 24 hrs in presence of serum amine oxidase inhibitor aminoguanidine (RVb = 59 +/- 1 pmol/h per ug DNA); type: cell-based; settings: DU-145
DU-145 = assay: Displacement of [14C]-spermidine from polyamine transporter in human DU145 cells at 1 to 100 uM after 10 mins; type: cell-based
[9] = biological target: Spermine oxidase (Homo sapiens) (UniProt Q9NWM0); assay: Activity of spermine oxidase in human DU145 cells assessed per ug DNA at 100 uM after 24 hrs in presence of serum amine oxidase inhibitor aminoguanidine (RVb = 493 +/- 22 pmol/h per ug DNA); type: cell-based; settings: DU-145
[10] = biological target: Peroxisomal N(1)-acetyl-spermine/spermidine oxidase (Homo sapiens) (UniProt Q6QHF9); assay: Activity of APAO in human DU145 cells assessed per ug DNA at 100 uM after 72 hrs in presence of serum amine oxidase inhibitor aminoguanidine (RVb = 662 +/- 48 pmol/h per ug DNA); type: cell-based; settings: DU-145
[11] = biological target: Peroxisomal N(1)-acetyl-spermine/spermidine oxidase (Homo sapiens) (UniProt Q6QHF9); assay: Activity of APAO in human DU145 cells assessed per ug DNA at 100 uM after 24 hrs in presence of serum amine oxidase inhibitor aminoguanidine (RVb = 540 +/- 61 pmol/h per ug DNA); type: cell-based; settings: DU-145
[12] = biological target: T1, Ornithine decarboxylase (Homo sapiens); assay: Activity of ornithine decarboxylase in human DU145 cells assessed per ug DNA at 100 uM after 48 hrs in presence of serum amine oxidase inhibitor aminoguanidine (RVb = 17.7+/- 2.6 pmol/h per ug DNA); type: cell-based; settings: DU-145
[13] = biological target: T2, S-adenosylmethionine decarboxylase proenzyme (Homo sapiens) (UniProt P17707); assay: Activity of S-adenosyl-L-methionine decarboxylase in human DU145 cells assessed per ug DNA at 100 uM after 48 hrs in presence of serum amine oxidase inhibitor aminoguanidine (RVb = 73 +/- 1 pmol/h per ug DNA); type: cell-based; settings: DU-145
T2 sequence (whole entry): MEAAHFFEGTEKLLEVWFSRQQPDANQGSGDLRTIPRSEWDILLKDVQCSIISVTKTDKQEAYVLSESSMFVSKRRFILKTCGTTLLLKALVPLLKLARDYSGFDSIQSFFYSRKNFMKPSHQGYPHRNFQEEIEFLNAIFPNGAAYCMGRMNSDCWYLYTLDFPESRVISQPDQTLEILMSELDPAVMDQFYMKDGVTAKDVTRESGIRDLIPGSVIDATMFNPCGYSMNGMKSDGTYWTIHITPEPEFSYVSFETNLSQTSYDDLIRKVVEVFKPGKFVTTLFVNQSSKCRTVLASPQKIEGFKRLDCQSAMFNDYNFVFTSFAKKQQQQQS

[14] = biological target: T2, S-adenosylmethionine decarboxylase proenzyme (Homo sapiens); assay: Activity of S-adenosyl-L-methionine decarboxylase in human DU145 cells assessed per ug DNA at 100 uM after 24 hrs in presence of serum amine oxidase inhibitor aminoguanidine (RVb = 61 +/- 5 pmol/h per ug DNA); type: cell-based; settings: DU-145
[15] = biological target: T2, S-adenosylmethionine decarboxylase proenzyme (Homo sapiens); assay: Activity of S-adenosyl-L-methionine decarboxylase in human DU145 cells assessed per ug DNA at 100 uM after 72 hrs in presence of serum amine oxidase inhibitor aminoguanidine (RVb = 72 +/- 6 pmol/h per ug DNA); type: cell-based; settings: DU-145

Row | Compound | Activity [1] [pmol/h] | Activity [2] [pmol/h] | Activity [3] [pmol/h] | Activity [4] [pmol/h] | Activity (Nucleic Acid) | Activity [5] [pmol/h] | Activity [6] [pmol/h] | Activity [7] [pmol/h] | Activity [8] [pmol/h] | Activity (DU-145) | Activity [9] [pmol/h] | Activity [10] [pmol/h] | Activity [11] [pmol/h] | Activity [12] [pmol/h] | Activity [13] [pmol/h] | Activity [14] [pmol/h] | Activity [15] [pmol/h]
1 | CC(N)CCCNCCCN (stereo not given) | 770 | 4.7 | 832 | 62 | Active | 61 | 738 | 3.8 | 65 | Active | 515 | 737 | 562 | 5.5 | 67 | 53 | 63
2 | CC(CCN)NCCCCN (stereo not given) | 693 | 8.8 | 571 | 59 | Active | 69 | 474 | 5.4 | 62 | Active | 204 | 775 | 528 | 9.3 | 60 | 53 | 58
3 | CCNCCCNCCCNCCCNCC | – | – | – | – | Active | – | – | – | – | – | – | – | – | – | – | – | –
4 | CC(CN)CNCCCCN (stereo not given) | 719 | 21.7 | 608 | 59 | Active | 61 | 655 | 9.1 | 56 | Active | 394 | 732 | 562 | 16.6 | 71 | 67 | 79
5 | C[C@H](N)CCNCCCCN | 779 | 4.3 | 754 | 61 | Active | 66 | 695 | 3.5 | 67 | Active | 362 | 745 | 545 | 4.4 | 72 | 64 | 75
6 | NCCCCNCCCN | – | – | – | – | – | – | – | – | – | Active | – | – | – | – | – | – | –
